Measurements: publication PMC4735867, “Leukotriene E4 is a full functional agonist for human cysteinyl leukotriene type 1 receptor-dependent gene expression” (Scientific Reports, 2016)

Target: T1, CysLT1 (cysteinyl leukotriene type 1 receptor) (Homo sapiens, UniProt Q9Y271)
T1 construct: gene CYSLTR1
T1 sequence (Q9Y271 1-337): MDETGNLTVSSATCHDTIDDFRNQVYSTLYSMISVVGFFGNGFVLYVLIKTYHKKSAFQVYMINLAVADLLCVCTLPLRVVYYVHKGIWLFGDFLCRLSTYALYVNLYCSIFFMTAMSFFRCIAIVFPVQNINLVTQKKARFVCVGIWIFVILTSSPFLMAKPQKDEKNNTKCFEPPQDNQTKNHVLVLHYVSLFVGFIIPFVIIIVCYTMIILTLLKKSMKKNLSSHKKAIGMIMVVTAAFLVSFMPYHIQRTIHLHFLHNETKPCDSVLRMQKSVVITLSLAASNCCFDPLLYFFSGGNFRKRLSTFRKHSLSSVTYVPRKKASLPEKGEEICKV
Format: cell-based

For CC(C)(O)c1ccccc1CC[C@@H](SCC1(CC(=O)O)CC1)c1cccc(/C=C/c2ccc3ccc(Cl)cc3n2)c1 [Montelukast], the “antagonism (100 nmol/L) of LTD4/LTE4-induced calcium mobilisation and CCL4 expre” value was “Montelukast fully inhibiting LTE4 responses in LAD2 as well as LTD4 responses in LAD2 and LUVA cells”.
